Type in all cases: cell-based
One assay has as its system MM66 cells. Kind of assay: Cell viability (XTT) on uveal melanoma cells MM66. Particulars: for metabolism of UM cells (XTT): MM66 cells, increasing doses, FIG. 2A. The procedure:
(§1) FIG. 1: In vitro efficacy of MCK140 and MCK151 on uveal melanoma cells. Cells were treated for 48 hours with increasing doses of MCK140 or MCK151 and the cell viability was then evaluated by XTT.
(§2) FIG. 2A: In vitro efficacy of MCK151, Ladarixin, and AZD-5069 in uveal melanoma cells. MP41 and MM66 cells were treated for 48 hours with increasing doses of MCK151 or Ladarixin or AZD-5069 and the cell metabolism was then evaluated by XTT.
(§3) Cell culture: Uveal melanoma cells were derived from the primary tumor (eye tumor, MP38 and MP46) and one is from liver metastasis (MM66) were a kind gift from Dr. Roman Roman (Curie Institute). UM cells were cultured in RPMI medium supplemented with 20% FBS.
(§4) Cell viability (XTT): Cells (5×10^3 cells/100 μl) were incubated in a 96-well plate with different effectors for the times indicated in the figure legends. 50 μl of sodium 3′-[1-phenylaminocarbonyl)-3,4-tetrazolium]-bis(4-methoxy-6-nitro) benzene sulfonic acid hydrate (XTT) reagent was added to each well. The assay is based on the cleavage of the yellow tetrazolium salt XTT to form an orange formazan dye by metabolically active cells. Absorbance of the formazan product, reflecting cell viability, was measured at 490 nm. Each assay was performed in quadruplicate.
Background: Tetrazolium dyes change colour on reduction, which living cells bring about.

Assay [1] has as its system MP41 cells. Kind of assay: Cell viability (XTT) on uveal melanoma cells MP41. The settings on record: for IC50: MP41 cells (primary tumor); for metabolism of UM cells (XTT): MP41 cells, increasing doses, FIG. 2A. The procedure: as §1, §2, §3, §4
Assay [2] deals with MP41 cells. Kind of assay: ROS assay (CellROX Deep Red, cytometry). The settings on record: MCK151 1, 2.5, 5 μM, Ladarixin 10 μM, FIG. 2B. The procedure: FIG. 2B: Inhibition of ROS production by MCK151 and Ladarixin in uveal melanoma cells. MP41 cells were treated for 48 hours with increasing doses of MCK151 (1 μM, 2.5 μM, and 5 μM) or Ladarixin (10 μM) and ROS quantity was evaluated by cytometry.
ROS assay: Deep Red Reagent was used to assess the level of intracellular ROS. The CellROX/Deep Red reagent (which is initially non-fluorescent) freely enters the cells, where it is cleaved by endogenous esterases. After oxidization by ROS, the reagent becomes highly fluorescent with an absorption/emission maximal of 644/665 nm. Cells were treated 24h and incubated at 37° C. with CellROX Deep Red reagent (0.01 umol/L) for 2 h. The cells were then washed with PBS and analyzed by cytometry.

The next assay deals with MP38 cells. The assay is described as follows: Cell viability (XTT) on uveal melanoma cells MP38. As for the experimental part: as §1, §3, §4
Setting [3] is: MM66 cells (liver metastases), 48 h, Table 3, read-out: IC50 (μM) at 48 h MM66.
Where [4] appears, read: 48 h, Table 3, read-out: IC50 (μM) at 48 h MP41.

Structures are written as SMILES. Like-named read-outs stand apart in the source and are kept apart here.

For orientation: IC50 means the concentration that inhibits the measured activity by half. As to `O=C(Nc1cccc(Cl)c1)Nc1nc2ccc(Br)cc2s1` [MCK159, 1-(6-bromobenzo[d]thiazol-2-yl)-3-(3-chlorophenyl)urea], the IC50 is 10 µM in the assay with MM66 cells (setting [3]) and 20 µM in the assay on MP41 cells [1] (setting [4]).

`Cc1cccc(NC(=O)Nc2nc3ccc([N+](=O)[O-])cc3o2)c1` [MCK153, 1-(6-nitrobenzo[d]oxazol-2-yl)-3-(m-tolyl)urea]: the values for the IC50 in the assay with MM66 cells (setting [3]) and in the assay with MP41 cells [1] (setting [4]) were 12 µM and 30 µM, respectively.

On to `C[C@@H](Oc1cc(NS(=O)(=O)N2CCC2)nc(SCc2cccc(F)c2F)n1)[C@@H](O)CO` [AZD-5069, reference compound], for which the “metabolism of UM cells (XTT)” value with MM66 cells (48 hours) and with MP41 cells [1] (48 hours) was “no effect” each time.

As for `C[C@@H](C(=O)NS(C)(=O)=O)c1ccc(OS(=O)(=O)C(F)(F)F)cc1` [Ladarixin, reference compound], the “metabolism of UM cells (XTT)” value in the assay with MM66 cells (48 hours) and with MP41 cells [1] (48 hours) was “no effect” each time. The “ROS production by UM cells” value with MP41 cells [2] is on record as “no effect”.

`Nc1ccc2nc(NC(=O)Nc3cccc(Cl)c3)sc2c1` [MCK148, 1-(6-aminobenzo[d]thiazol-2-yl)-3-(3-chlorophenyl)urea]: the IC50 with MM66 cells (setting [3]) and with MP41 cells [1] (setting [4]) was 50 µM throughout.

As to `O=C(Nc1cccc(Cl)c1)Nc1nc2ccc([N+](=O)[O-])cc2s1` [MCK140, 1-(3-chlorophenyl)-3-(6-nitrobenzo[d]thiazol-2-yl)urea], the half-maximal inhibitory concentration (IC50) with MM66 cells (setting [3]) was 1.25 µM; with MM66 cells (MM66 cells (liver metastasis), 48 hours, XTT, Table 2, read-out: IC50 (μM) UM MM66), 1.25 µM; in the assay with MP38 cells (MP38 cells (primary tumor), 48 hours, XTT), 1 µM; in the assay on MP41 cells [1] (setting [4]), 1 µM; with MP41 cells [1] (48 hours, XTT, Table 2, read-out: IC50 (μM) UM MP41), 1 µM. For the same compound, the viability of cells result in the assay on MM66 cells (MM66 cells from liver metastases, in words) is on record as “decreased the viability”; in the assay with MP38 cells (MP38 cells from the primary tumor, in words), “decreased the viability”; with MP41 cells [1] (MP41 cells from the primary tumor, in words), “decreased the viability”.

Turning to `O=C(Nc1cccc(Cl)c1)Nc1nc2ccc(-c3cccc4ccccc34)cc2s1` [MCK164, 1-(3-chlorophenyl)-3-(6-(naphthalen-1-yl)benzo[d]thiazol-2-yl)urea], the results for the IC50 with MM66 cells (setting [3]) and in the assay on MP41 cells [1] (setting [4]) were 5 µM and 10 µM, respectively.

Take `O=C(Nc1cccc(Cl)c1)Nc1nc2ccc(-c3ccccn3)cc2s1` [MCK172, 1-(3-chlorophenyl)-3-(6-(pyridin-2-yl)benzo[d]thiazol-2-yl)urea]: the IC50 in the assay on MM66 cells (setting [3]) was 25 µM; in the assay on MP41 cells [1] (setting [4]), 30 µM.

As to `O=C(Nc1ccccc1)Nc1nc2ccc([N+](=O)[O-])cc2[nH]1` [MCK157, 1-(6-nitro-1H-benzo[d]imidazol-2-yl)-3-phenylurea], the IC50 in the assay with MM66 cells (setting [3]) turned out to be 10 µM; in the assay on MP41 cells [1] (setting [4]), 8 µM.

In the case of `CCOc1ccc2nc(NC(=O)Nc3ccccc3C)sc2c1` [MCK133, 1-(6-ethoxybenzo[d]thiazol-2-yl)-3-(o-tolyl)urea], the IC50 was found to be 20 µM with MM66 cells (setting [3]) and 15 µM in the assay on MP41 cells [1] (setting [4]).

`CC(=O)Nc1ccc2nc(NC(=O)Nc3cccc(Cl)c3)sc2c1` [MCK149, N-(2-(3-(3-chlorophenyl)ureido)benzo[d]thiazol-6-yl)acetamide]: the IC50 amounted to 25 µM with MM66 cells (setting [3]) and 40 µM in the assay with MP41 cells [1] (setting [4]).

Regarding `O=C(Nc1nc2ccc([N+](=O)[O-])cc2s1)Nc1ccccc1Cl` [MCK139, 1-(2-chlorophenyl)-3-(6-nitrobenzo[d]thiazol-2-yl)urea], the IC50 is 15 µM in the assay with MM66 cells (setting [3]) and 20 µM with MP41 cells [1] (setting [4]).

As to `O=C(Nc1ccccc1)Nc1nc2ccccc2[nH]1` [MCK113, 1-(1H-benzo[d]imidazol-2-yl)-3-phenylurea], the half-inhibitory concentration (IC50) stood at 40 µM with MM66 cells (setting [3]) and 32 µM in the assay on MP41 cells [1] (setting [4]).

For `CCOc1ccc2nc(NC(=O)Nc3ccc(OC)cc3)sc2c1` [MCK135, 1-(6-ethoxybenzo[d]thiazol-2-yl)-3-(4-methoxyphenyl)urea], the IC50 in the assay on MM66 cells (setting [3]) and in the assay with MP41 cells [1] (setting [4]) was 50 µM in each case.

Source of the values: patent US20240199562A1, “UREA DERIVATIVES FOR TREATING UVEAL MELANOMA” (CENTRE NATIONAL DE LA RECHERCHE SCIENTIFIQUE, priority 2021, published 2024).
